Here are results for six molecules from the NIST ThermoML archive (doi:10.1016/j.fluid.2008.07.018).

± gives the expanded uncertainty stated by the source.

The conditions of series [1]: Liquid; for mass density: 298.15 K, 101.33 kPa.
Series [2] can be described thus: refractive index (Na D-line) (dimensionless). The conditions noted are these: 298.15 K; 101.33 kPa; Liquid; Standard Abbe refractometry.

For `CC(=O)N(C)C` [N,N-dimethylethanamide], the mass density in series [1] is given as 936.3 ± 2.7 kg/m3. Also, the refractive index in series [2] turned out to be 1.4357 ± 0.0007.
For `Clc1ccccc1` [chlorobenzene], in series [1], the mass density was 1106.3 ± 3.3 kg/m3. In addition, the “vapor or sublimation pressure” value in series [1] (402.85 K) is given as 95.5 ± 4 kPa. In series [2], the refractive index is 1.5218 ± 0.0007.
On to `CC(=O)c1ccccc1` [acetophenone], for which, in series [1], the mass density was found to be 1023.8 ± 3 kg/m3. For the same molecule, the “vapor or sublimation pressure” value in series [1] (472.55 K) turned out to be 95.5 ± 4 kPa. Moreover, the refractive index in series [2] is listed as 1.5342 ± 0.0007.
As for `Brc1ccccc1` [bromobenzene], in series [1], the mass density came out at 1488.1 ± 4.8 kg/m3. Besides, in series [1] (427.05 K), the “vapor or sublimation pressure” value was 95.5 ± 4 kPa. For the same molecule, the refractive index in series [2] was 1.5571 ± 0.0007.
Take `CN(C)C=O` [dimethylformamide]: in series [1], the mass density amounted to 943.9 ± 1.6 kg/m3. For the same molecule, the “vapor or sublimation pressure” value in series [1] (424.35 K) is given as 95.5 ± 3.3 kPa. The refractive index in series [2] came out at 1.4219 ± 0.0007.
On to `Nc1ccccc1` [aniline], for which, in series [1], the mass density stood at 1017.6 ± 3 kg/m3. Moreover, the “vapor or sublimation pressure” value in series [1] (455.25 K) stood at 95.5 ± 4 kPa. Further, the refractive index in series [2] is listed as 1.5836 ± 0.0007.

As usually defined, the mass density is the mass of a sample divided by its volume. A word on the refractive index: it is a measure of how strongly the sample bends light. In general, vapor or sublimation pressure refers to the equilibrium pressure above the liquid or solid.
